Laboratory results taken from ChEMBL document CHEMBL1201862, “PubChem BioAssay data set” (2004).
Active and inactive are the calls of the source.

How the values were obtained:
[1] = system: H4; assay: Luminescence Cell-Based Dose Response HTS to Identify Activators of 5'UTR Stem-Loop Driven Prion Protein mRNA Translation in H4 Neuroglioblastoma Cells. [Related pubchem assays: 1829 (Project Summary), 1814 (Primary HTS)]; assay type: functional; details: Homo sapiens
[2] = Luminescence Cell-Based Dose Response HTS to Identify Activators of Luciferase Translation or Activity in H4 […] Cells. [Related pubchem assays: 1829 (Project Summary), 1814 (Primary HTS)]; assay type: functional
[3] = molecular target: Cytochrome P450 2D6 (Homo sapiens, UniProt P10635);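 also: CYP2D6 member of a cytochrome P450 panel assay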
[4] = molecular target: Cytochrome P450 2C9 (Homo sapiens, UniProt P11712)
[5] = molecular target: T1, Cytochrome P450 1A2 (Homo sapiens, UniProt P05177);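 also: PubChem cytochrome P450 panel assay, CYP1A2 panel member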
T1 sequence (P05177 whole entry): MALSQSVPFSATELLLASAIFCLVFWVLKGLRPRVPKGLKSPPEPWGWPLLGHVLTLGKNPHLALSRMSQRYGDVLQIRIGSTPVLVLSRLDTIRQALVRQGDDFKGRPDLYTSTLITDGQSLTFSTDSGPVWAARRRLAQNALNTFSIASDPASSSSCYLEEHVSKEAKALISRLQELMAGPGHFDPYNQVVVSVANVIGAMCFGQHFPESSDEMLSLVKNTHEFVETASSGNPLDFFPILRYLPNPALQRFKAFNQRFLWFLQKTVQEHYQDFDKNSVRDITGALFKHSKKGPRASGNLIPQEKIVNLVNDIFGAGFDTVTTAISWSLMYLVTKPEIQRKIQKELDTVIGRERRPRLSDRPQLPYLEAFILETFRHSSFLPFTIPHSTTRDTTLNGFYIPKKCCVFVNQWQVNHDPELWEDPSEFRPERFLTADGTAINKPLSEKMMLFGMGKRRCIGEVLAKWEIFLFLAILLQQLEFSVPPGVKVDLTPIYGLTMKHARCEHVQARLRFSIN

[6] = Luminescence Cell-Based Dose Confirmation HTS to Identify Activators of 5'UTR Stem-Loop Driven Alpha-Synuclein mRNA Translation in H4 Neuroglioblastoma Cells. [Related pubchem assays: 1829 (Project Summary), 1814 (Primary HTS)]; assay type: functional
[7] = molecular target: T2, Rac GTPase-activating protein 1 (Homo sapiens, UniProt Q9H0H5); assay: blockers of MgcRacGAP-driven Rac1 GTP hydrolysis – biochemical, ADP Hunter fluorescence, primary and confirmatory, confirmation (AID 624330); assay type: functional
T2 sequence (Q9H0H5 whole entry): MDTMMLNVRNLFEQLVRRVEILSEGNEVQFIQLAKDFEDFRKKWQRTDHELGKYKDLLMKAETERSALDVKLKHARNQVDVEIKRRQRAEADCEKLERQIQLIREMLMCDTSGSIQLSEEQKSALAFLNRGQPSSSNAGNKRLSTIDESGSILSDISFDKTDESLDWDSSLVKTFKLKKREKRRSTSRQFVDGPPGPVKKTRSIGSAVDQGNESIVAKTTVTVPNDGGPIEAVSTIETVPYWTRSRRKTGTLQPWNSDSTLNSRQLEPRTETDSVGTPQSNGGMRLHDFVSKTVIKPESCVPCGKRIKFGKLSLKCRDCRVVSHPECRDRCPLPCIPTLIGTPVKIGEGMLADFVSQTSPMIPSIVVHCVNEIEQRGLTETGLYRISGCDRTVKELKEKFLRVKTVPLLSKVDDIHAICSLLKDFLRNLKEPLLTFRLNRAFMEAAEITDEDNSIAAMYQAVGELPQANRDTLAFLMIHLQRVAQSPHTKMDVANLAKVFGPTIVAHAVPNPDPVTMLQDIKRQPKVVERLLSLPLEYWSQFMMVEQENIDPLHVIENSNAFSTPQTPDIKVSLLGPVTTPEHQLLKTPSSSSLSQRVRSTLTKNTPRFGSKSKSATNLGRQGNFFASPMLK

[8] = molecular target: Cytochrome P450 3A4 (Homo sapiens, UniProt P08684);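 also: CYP3A4 tested as one member of a cytochrome P450 panel screen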
[9] = molecular target: Cytochrome P450 2C19 (Homo sapiens, UniProt P33261); assay: Cytochrome panel assay with activity outcomes. Panel member name: p450-cyp2c19 Compounds with AC50 equal or less than 10 uM are considered active; assay type: functional; details: read-out: AC50
[10] = NIH3T3 cell viability loss – ATP luminescence, mouse fibroblasts, counter-screen, dose response (AID 2010); assay type: functional, cell-based;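 also: cells exposed to compound for about 90 hours before reading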
[11] = Trypanosoma cruzi growth suppression in host cells – NIH3T3 host cells, beta-gal luminescence, confirmation (AID 2044); assay type: functional, cell-based;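 also: intracellular parasites grown in NIH/3T3 mouse fibroblasts as host cells; luminescent beta-galactosidase reporter signal from transgenic T. cruzi replicating inside host cells; inhibitors lower the luminescence signal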
[12] = Luminescence Cell-Based Dose Retest to Confirm Inhibitors of Cancer Stem Cells. [Related pubchem assays (depositor defined):AID2717, AID2721]; assay type: functional; details: Homo sapiens

Cytochrome P450 2C9, sequence (P11712 whole entry): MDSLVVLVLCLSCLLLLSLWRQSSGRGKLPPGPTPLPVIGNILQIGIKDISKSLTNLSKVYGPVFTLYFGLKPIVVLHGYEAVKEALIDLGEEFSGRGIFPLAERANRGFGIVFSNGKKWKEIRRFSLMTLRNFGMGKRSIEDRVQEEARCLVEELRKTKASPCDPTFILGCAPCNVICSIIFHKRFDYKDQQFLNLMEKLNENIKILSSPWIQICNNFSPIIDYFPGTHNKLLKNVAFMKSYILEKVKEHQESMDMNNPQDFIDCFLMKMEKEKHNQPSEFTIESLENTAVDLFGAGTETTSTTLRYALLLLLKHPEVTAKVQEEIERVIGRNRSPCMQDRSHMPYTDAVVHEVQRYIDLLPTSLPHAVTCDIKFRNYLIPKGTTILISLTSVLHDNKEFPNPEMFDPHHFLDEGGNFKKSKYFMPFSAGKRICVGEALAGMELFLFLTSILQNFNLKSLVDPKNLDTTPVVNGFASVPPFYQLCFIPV
Cytochrome P450 2D6, sequence (P10635 whole entry): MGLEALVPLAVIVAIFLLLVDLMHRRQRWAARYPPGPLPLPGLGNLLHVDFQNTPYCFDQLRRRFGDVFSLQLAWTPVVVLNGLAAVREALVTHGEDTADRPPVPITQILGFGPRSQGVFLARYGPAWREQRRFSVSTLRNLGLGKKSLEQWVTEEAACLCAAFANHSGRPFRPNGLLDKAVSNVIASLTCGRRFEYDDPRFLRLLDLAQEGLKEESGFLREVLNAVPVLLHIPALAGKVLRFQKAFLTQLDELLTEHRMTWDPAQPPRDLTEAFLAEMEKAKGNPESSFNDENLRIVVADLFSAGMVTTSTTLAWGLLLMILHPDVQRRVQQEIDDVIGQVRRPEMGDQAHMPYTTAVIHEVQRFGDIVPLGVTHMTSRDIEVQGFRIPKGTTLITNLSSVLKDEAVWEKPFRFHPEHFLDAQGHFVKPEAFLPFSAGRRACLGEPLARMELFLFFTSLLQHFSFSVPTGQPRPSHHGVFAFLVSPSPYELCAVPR
Cytochrome P450 2C19, sequence (P33261 whole entry): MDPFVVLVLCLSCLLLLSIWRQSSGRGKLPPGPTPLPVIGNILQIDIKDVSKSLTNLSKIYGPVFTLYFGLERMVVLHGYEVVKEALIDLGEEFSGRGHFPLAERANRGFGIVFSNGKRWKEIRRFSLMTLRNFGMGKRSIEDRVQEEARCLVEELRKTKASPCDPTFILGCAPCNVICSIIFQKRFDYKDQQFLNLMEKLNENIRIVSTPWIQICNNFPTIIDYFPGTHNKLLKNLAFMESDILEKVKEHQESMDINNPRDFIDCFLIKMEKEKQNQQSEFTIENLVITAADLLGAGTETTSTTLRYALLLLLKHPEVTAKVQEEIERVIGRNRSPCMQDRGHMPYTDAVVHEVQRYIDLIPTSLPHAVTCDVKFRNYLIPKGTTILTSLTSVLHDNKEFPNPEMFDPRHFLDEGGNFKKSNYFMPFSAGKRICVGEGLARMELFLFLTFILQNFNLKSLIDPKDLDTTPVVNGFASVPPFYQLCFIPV
Cytochrome P450 3A4, sequence (P08684 whole entry): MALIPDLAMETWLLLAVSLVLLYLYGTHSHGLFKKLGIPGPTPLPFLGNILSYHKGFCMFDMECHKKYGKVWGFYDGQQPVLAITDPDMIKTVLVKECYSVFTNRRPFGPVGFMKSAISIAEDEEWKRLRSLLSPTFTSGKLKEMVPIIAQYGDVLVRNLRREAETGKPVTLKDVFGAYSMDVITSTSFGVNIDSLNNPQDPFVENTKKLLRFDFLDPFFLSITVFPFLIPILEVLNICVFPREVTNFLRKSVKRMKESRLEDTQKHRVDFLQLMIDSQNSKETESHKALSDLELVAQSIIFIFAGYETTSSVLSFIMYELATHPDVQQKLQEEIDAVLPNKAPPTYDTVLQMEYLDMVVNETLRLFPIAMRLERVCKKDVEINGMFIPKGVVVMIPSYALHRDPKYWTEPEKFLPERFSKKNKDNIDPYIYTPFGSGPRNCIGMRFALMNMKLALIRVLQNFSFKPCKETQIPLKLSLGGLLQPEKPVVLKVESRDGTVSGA

Question: With Oc1c2c(nc3cc(-c4ccccc4Cl)nn13)CCS2 as the molecule, how does the EC50 [1] read?
Answer: 21.7 µM (active)

Question: And the EC50 [2]?
Answer: 2.34 µM (active)

Question: For O=C(CCCCn1c(=S)[nH]c2ccsc2c1=O)NCc1ccco1, which AC50 [3] is on record?
Answer: 39.8 µM (inconclusive)

Question: With Cc1nc(SCC(=O)c2ccc(F)cc2)c([N+](=O)[O-])[nH]1 as the molecule, how does the AC50 [4] read?
Answer: 20 µM (inconclusive)

Question: With Cc1nn(-c2ccccc2)c(Cl)c1C(=O)Nc1c(C)n(C)n(-c2ccccc2)c1=O as the molecule, how does the AC50 [5] read?
Answer: 5.01 µM (inconclusive)

Question: What about the AC50 [4] of the same molecule?
Answer: 20 µM (inconclusive)

Question: Which EC50 [1] does the source give for O=C(CCc1ccccc1)Nc1ccc(Cl)cn1 here?
Answer: 19.8 µM (active)

Question: And the EC50 [2]?
Answer: 1.18 µM (active)

Question: And the EC50 [6]?
Answer: > 120 µM (not active)

Question: With O=C(O)C1CSC(c2ccco2)N1 (centres undefined) as the molecule, how does the IC50 [7] read?
Answer: 70.6 µM (active)

Question: Which results are given for CCCCOc1ccc(-c2nnn(CC(=O)NCc3ccco3)n2)cc1?
Answer: EC50 [1]: 10 µM (active); EC50 [2]: 24.3 µM (active); EC50 [6]: > 120 µM (not active)

Question: Which EC50 [1] does the source give for COc1ccc(C2=C/C(=C\c3ccccc3OC(C)=O)C(=O)O2)cc1 here?
Answer: 48.4 µM (active)

Question: And the EC50 [2]?
Answer: 90 µM (active)

Question: What about the EC50 [6] of the same molecule?
Answer: 18.6 µM (active)

Question: What does the source list for COc1ccc2c(c1OC)C(=O)N1c3ccccc3SC21 (centres undefined)?
Answer: EC50 [1]: 0.179 µM (active); EC50 [2]: 0.124 µM (active)

Question: With CC(C)NC(=O)CSc1nnc(C2CC2)n1-c1ccccc1 as the molecule, how does the AC50 [8] read?
Answer: 25.1 µM (inconclusive)

Question: And the AC50 [4]?
Answer: 31.6 µM (inconclusive)

Question: For C=CCNCC(O)COc1ccc(C(C)=O)cc1OC (centres undefined), which IC50 [7] is on record?
Answer: 131 µM (active)

Question: Which results are given for CC1CCCCC12NC(=O)N(CC(=O)NC(=O)Nc1ccc3c(c1)OCCO3)C2=O (centres undefined)?
Answer: EC50 [1]: 0.117 µM (active); EC50 [2]: 0.483 µM (active); EC50 [6]: 0.111 µM (active)

Question: For O=C(c1cc(-c2ccc3c(c2)OCO3)on1)N1CCN(c2ccccc2)CC1, which EC50 [1] is on record?
Answer: 4.67 µM (active)

Question: And the EC50 [2]?
Answer: 0.817 µM (active)

Question: And the EC50 [6]?
Answer: 0.793 µM (active)

Question: With CCCCNc1ncnc2c1cnn2-c1ccccc1 as the molecule, how does the EC50 [1] read?
Answer: 27.1 µM (active)

Question: For S=C(NCCN1CCOCC1)Nc1ccc(-c2nc3ccccc3[nH]2)cc1, which EC50 [1] is on record?
Answer: 16.5 µM (active)

Question: What about the EC50 [2] of the same molecule?
Answer: 10.7 µM (active)

Question: And the EC50 [6]?
Answer: 16.3 µM (active)

Question: With CC1CCc2c(nc3ncnn3c2NCCc2ccccc2F)C1 (centres undefined) as the molecule, how does the EC50 [1] read?
Answer: > 120 µM (not active)

Question: And the EC50 [2]?
Answer: > 120 µM (not active)

Question: What about the EC50 [6] of the same molecule?
Answer: > 120 µM (not active)

Question: For O=C(O)c1nnsc1-c1ccc(-c2snnc2C(=O)O)cc1, which AC50 [4] is on record?
Answer: 7.94 µM (inconclusive)

Question: For COc1cccc2[nH]c(C(=O)NN)c(N)c12, which IC50 [7] is on record?
Answer: 99.4 µM (active)

Question: Which results are given for c1nc(NC2CC2)c2cc(-c3ccoc3)ccc2n1?
Answer: AC50 [9]: 20 µM (inconclusive); AC50 [3]: 39.8 µM (inconclusive); AC50 [8]: 5.01 µM (inconclusive)

Question: For O=C(NC(=S)Nc1ccc(O)cc1)C1CCCC1, which IC50 [7] is on record?
Answer: 29.6 µM (active)

Question: For COc1ccccc1CNc1cc(-c2c(C)noc2C)ncn1, which AC50 [9] is on record?
Answer: 25.1 µM (inconclusive)

Question: And the AC50 [3]?
Answer: 25.1 µM (inconclusive)

Question: And the AC50 [8]?
Answer: 39.8 µM (inconclusive)

Question: For COC(=O)c1ccc(NC(=S)N2CCN(Cc3cccc(C)c3)CC2)cc1, which AC50 [3] is on record?
Answer: 35.5 µM (inconclusive)

Question: Which results are given for CCn1c(=N)n(CC(=O)C23CC4CC(CC(C4)C2)C3)c2ccccc21?
Answer: EC50 [10]: > 60 µM (not active); EC50 [11]: 0.223 µM (active)

Question: What does the source list for Clc1cccc(Cl)c1/C=C/c1cc[nH]n1?
Answer: EC50 [1]: 27 µM (active); EC50 [2]: 41.2 µM (active); EC50 [6]: > 120 µM (not active)

Question: Which AC50 [12] does the source give for O=C(NC(=S)Nc1cccc(Cl)c1N1CCCCC1)c1cccs1 here?
Answer: 2.08 µM (active)

Question: What does the source list for COC(=O)c1cc(Br)c(=O)n(CCN2CCCC2)c1?
Answer: AC50 [9]: 39.8 µM (inconclusive); AC50 [3]: 17.8 µM (inconclusive); AC50 [5]: 12.6 µM (inconclusive); AC50 [4]: 39.8 µM (inconclusive)
